Measured values taken from patent US6949679B1, “Polyamine transport inhibitors” (Universite Laval, priority 1998, dated 2005).
Like-named read-outs stand apart in the source and are kept apart here.

How the values were obtained:
[1] = test system: polyamine transporter; assay: Inhibition of [14C]spermine uptake in ZR-75-1 cells; assay type: cell-based, human; details: for Ki: this work, read-out: Km or Ki, spermine transport
Description: The rate of putrescine and spermidine transport was determined in ZR-75-1 cells incubated in serum-free RPMI 1640 medium as described (Lessard, M., Zhao, C., Singh, S. M. and Poulin, R. 1995. J. Biol. Chem. 270: 1685-1694), using [^3H]putrescine (30 Ci/mol) and [^3H]spermidine (20 Ci/mol), respectively as substrates for a 20 minute-assay period. […] Uptake activity was expressed per amount of DNA as fluorometrically determined using 3,4-diaminobenzoic acid (Simard, J., Dauvois, S., Haagensen, D. E., Lėvesque, C., Mėrand, Y. and Labrie, F. 1990. Endocrinology, 126: 3223-3231). For the determination of spermidine uptake activity in CHO-K1 cells, 80% confluent cell monolayers were rinsed twice with PBS and incubated for 20 minutes at 37° C. in 400 μl of buffer A (20 mM Tris-HCl, pH 7.4; 0.42 mM CaCl2; 0.41 mM MgSO4; 103 mM NaCl; 5.7 mM KCl; 1.1 mM D-glucose) containing 5 μM [^3H]spermidine (20 Ci/mol). Cell cultures were then washed twice with 1 ml PBS containing 5.7 mM sym-norspermidine. Cells were then lysed with 200-μl aliquot of 1 N NaOH and incubated for 30 minutes at 60° C. After neutralization with 200 μl of 1 N HCl, radioactivity was determined from a 250-μl of the cell lysate by scintillation counting. Uptake activity was expressed per amount of total cellular protein as determined by the method of Bradford (Bradford, M. M. 1976. Anal. Biochem. 72: 248-254). Non-specific binding of radioactive substrate was similarly determined in parallel for both cell lines after a 15 second-incubation with 400 μl of ice-cold uptake solution.
(§1) Kinetic analysis of polyamine transport was performed by determining uptake activity in the presence of a 3 μM [^3H]putrescine or 1 μM [^3H]spermidine plus increasing concentrations of nonradioactive substrate. K[…] Ki and Vmax values were then estimated by Lineweaver-Burke analysis. For competitive inhibitors, Ki values were also estimated by measuring uptake activity in the presence of logarithmically increasing concentrations of antagonist, and using the Cheng-Prusoff equation (Cheng, Y.-C. and Prusoff, W. H. 1973. Biochem. Pharmacol. 22: 3099-3108) by iterative curve fitting for a sigmoidal curve. For mixed competitive/noncompetitive inhibition, two methods were used to calculate kinetic constants. First, the equation [drawing 2] where v, s, and i are the transport velocity, substrate concentration and inhibitor concentration respectively, was used to calculate the inhibition constants for inhibitor/carrier complex formation (Ki) and carrier/inhibitor/substrate complex formation (Ki′) (Dixon, M. and Webb, E. C. 1976. Enzymes, 3rd Ed., Academic Press, San Diego, Calif.). Alternatively, the value of Ki for a mixed competitor/non-competitor was estimated from the intersect of equations v^−1 vs i at two different substrate concentrations (Dixon, M. and Webb, E. C. 1976. Enzymes, 3rd Ed., Academic Press, San Diego, Calif.). Intracellular Accumulation
(§2) In order to evaluate the effectiveness of dimeric triamines as polyamine transport inhibitors, we synthesized N,N′-bis(3-aminopropyl),N,N′-bis(4-aminobutyl)cystamine or BABAC (structure 1, FIG. 25; FIG. 31), and its thiol form N-(3-aminopropyl),N-(4-aminobutyl)cysteamine or AAC (FIG. 31) according to Scheme 4 described above (FIG. 30), using spermidine as a precursor polyamine. The ability of BABAC and AAC to inhibit the intracellular uptake of radio-labeled putrescine and spermidine in the ZR-75-1 human breast cancer cell line was then determined according to standard published procedures (Lessard, et al. and Poulin, et al.) Briefly, ZR-75-1 cells were grown for four days in twenty-four well plates in RPMI 1640 medium supplemented with 10% fetal bovine serum.

[2] = test system: polyamine transporter; assay: Inhibition of [3H]putrescine uptake in ZR-75-1 cells; assay type: cell-based, human; details: for Ki: ZR-75-1 cells
Description: (§3) The rate of putrescine and spermidine transport was determined in ZR-75-1 cells incubated in serum-free RPMI 1640 medium as described (Lessard, M., Zhao, C., Singh, S. M. and Poulin, R. 1995. J. Biol. Chem. 270: 1685-1694), using [^3H]putrescine (30 Ci/mol) and [^3H]spermidine (20 Ci/mol), respectively as substrates for a 20 minute-assay period. Spermine uptake was similarly determined, using 1 μM [^14C]spermine (32 Ci/mol) as substrate. Uptake activity was expressed per amount of DNA as fluorometrically determined using 3,4-diaminobenzoic acid (Simard, J., Dauvois, S., Haagensen, D. E., Lėvesque, C., Mėrand, Y. and Labrie, F. 1990. Endocrinology, 126: 3223-3231). For the determination of spermidine uptake activity in CHO-K1 cells, 80% confluent cell monolayers were rinsed twice with PBS and incubated for 20 minutes at 37° C. in 400 μl of buffer A (20 mM Tris-HCl, pH 7.4; 0.42 mM CaCl2; 0.41 mM MgSO4; 103 mM NaCl; 5.7 mM KCl; 1.1 mM D-glucose) containing 5 μM [^3H]spermidine (20 Ci/mol). Cell cultures were then washed twice with 1 ml PBS containing 5.7 mM sym-norspermidine. Cells were then lysed with 200-μl aliquot of 1 N NaOH and incubated for 30 minutes at 60° C. After neutralization with 200 μl of 1 N HCl, radioactivity was determined from a 250-μl of the cell lysate by scintillation counting. Uptake activity was expressed per amount of total cellular protein as determined by the method of Bradford (Bradford, M. M. 1976. Anal. Biochem. 72: 248-254). Non-specific binding of radioactive substrate was similarly determined in parallel for both cell lines after a 15 second-incubation with 400 μl of ice-cold uptake solution.
as §1, §2

[3] = test system: ZR-75-1 cells; assay: Effect on ZR-75-1 cell proliferation (11 days, DNA content); assay type: cell-based, human; details: 50 μM
Description: (§4) For growth studies, ZR-75-1 cells were cultured in MEZR medium or in phenol red-free RPMI 1640 supplemented with 2 mM L-glutamine, 1 mM sodium pyruvate, 15 mM Hepes, antibiotics, 1 nM 17β-estradiol, 0.5 μg of bovine insulin per ml and 5% (v/v) charcoal-treated fetal bovine serum (SD medium), as indicated in the text. When polyamines or polyamine analogs were added to serum-containing media, 1 mM aminoguanidine was added to inhibit bovine serum amine oxidase (BSAO) activity (Morgan, D. M. L. 1989, in The Physiology of Polyamines (Bachrach, U., and Heimer, Y. M. eds) Vol. I, pp. 203-229, CRC Press, Boca Raton). The effect of the transport inhibitors on cell growth was measured by incubating ZR-75-1 cells for 11 days in medium supplemented with antagonist, polyamines and/or 1 mM DFMO as indicated, followed by colorimetric determination of DNA content with 3,4-diaminobenzoic acid (Simard, J., Dauvois, S., Haagensen, D. E., Lėvesque C., Mėrand, Y. and Labriė, F. 1990. Endocrinology 126: 3223-3231). Medium was changed every other day in these experiments because of the slow reaction of the compound with an unknown component present in the IMEM and RPMI 1640 medium formulation.
The biocompatibility of DESC, MESC, and DEASC was thus evaluated during a long-term (11-day) incubation with ZR-75-1 cells grown in RPMI 1640 containing 10% (v/v) FBS in the absence and presence of 1 mM aminoguanidine. […] Weak growth inhibition caused by the mixed MESC-cysteamine disulfide, however, apparently involved degradation by a copper amine oxidase.

[4] = Stability in buffered aqueous solution; assay type: physicochemical; details: buffered at pH=7.0
[5] = biological target: polyamine transporter; details: ZR-75-1 cells; data annotated a (Lessard et al. 1995); read-out: Km or Ki, spermidine transport; cited from earlier work
[6] = biological target: polyamine transporter; details: ZR-75-1 cells; data annotated a (Lessard et al. 1995); read-out: Km or Ki, putrescine transport; cited from earlier work
[7] = test system: ZR-75-1 cells; assay: Reversal of DFMO-induced growth inhibition by exogenous spermidine; assay type: cell-based, human; details: 1 mM DFMO
Description: as §4, with “3223-3231).” for “3223-3231). Medium was changed every other day in these experiments because of the slow reaction of the compound with an unknown component present in the IMEM and RPMI 1640 medium formulation.”
This possibility was assessed by comparing the ability of DESC to prevent the reversal of DFMO-induced growth inhibition by increasing concentrations of exogenous spermidine.

[8] = biological target: polyamine transporter; details: ZR-75-1 cells; data annotated a (Lessard et al. 1995); read-out: Km or Ki, spermine transport; cited from earlier work
[9] = test system: polyamine transporter; assay: Inhibition of [3H]spermidine uptake in ZR-75-1 cells; assay type: cell-based, human; details: FIG. 32, 20 μM and 3 μM substrate, respectively, read-out: Apparent Ki, spermidine uptake
Description: as §3
as §1, with “Alternatively, the value of Ki for a mixed competitor/non-competitor was estimated from the intersect of equations v^−1 vs i at two different substrate concentrations (Dixon, M. and Webb, E. C. 1976. Enzymes, 3rd Ed., Academic Press, San Diego, Calif.). Intracellular Accumulation” left out
as §2

[10] = MESC: amino group neighboring the amide linkage; cited from earlier work
[11] = in vitro; details: human, ZR-75-1 cells
Description: FIG. 34 represents the relative cytotoxicity of sym-norspermidine (NSpd), BABAC and TADAX in ZR-75-1 human breast cancer cells. Data are the mean±SD of triplicate determinations from a representative experiment.

[12] = test system: polyamine transporter; assay: Inhibition of [14C]spermine uptake in ZR-75-1 cells; assay type: cell-based, human; details: 3μM substrate (Example 11), read-out: Ki, [14C]spermine transport
[13] = test system: ZR-75-1 cells; assay: Intracellular accumulation of inhibitor and polyamine contents (HPLC) in ZR-75-1 cells; assay type: cell-based, human; details: ZR-75-1 cells, 6-hour incubation, HPLC of cell extracts

NCCCNCCCC(NCCCN)C(=O)NCCSSCCN (stereo not shown) [DEASC, N-[2,2′-dithio(ethyl,1-aminoethyl)]spermine-5-carboxamide]
Ki for [14C]spermine transport, fold higher than that of DESC ([1]; FIG. 2): about 5 fold
Ki [1]: 16000 ± 3000 nM
Mode of inhibition of [3H]putrescine uptake ([2]; Lineweaver-Burke, DESC up to 100 μM, MESC up to 200 μM): mixed competitive/non-competitive type
Ki ([2]; mixed competitive/non-competitive model, read-out: Ki′ (carrier/inhibitor/putrescine complex formation)): 4100 nM
Ki ([2]; this work, DEASC: Ki of mixed competitive/non-competitive model, read-out: Ki, putrescine transport): 5300 ± 600 nM
Inhibition of cell proliferation ([3]; completely prevented by aminoguanidine): 20%
Stability in aqueous solutions [4]: stable for months

NCCCCN [Putrescine, 1,4-butane-diamine]
Ki [1]: 230 ± 130 nM
Ki [5]: 125000 ± 29000 nM
Ki [6]: 3700 ± 400 nM

NCCCCNCCCN [Spermidine, N-3[aminopropyl]-1,4-diaminobutane]
Ki [5]: 490 ± 150 nM
Spermidine concentration completely reversing DFMO-induced growth inhibition ([7]; 11 days): 0.3 µM
activity at 0.1 µM ([7]; Homo sapiens, ZR-75-1, 0.1 μM spermidine, read-out: Growth of DFMO-treated cells restored, % of control value): 78%
Ki [8]: 370 ± 90 nM
Ki [6]: 230 ± 50 nM

NCCCNCCCCNCCCN [Spermine, N,N′-bis-[3-aminopropyl]-1,4-butanediamine, reference compound]
Km ([1]; 3μM substrate (Example 11), read-out: Apparent Km, spermine transport): 0.6 µM
Ki [1]: 200 ± 60 nM
Ki ([2]; FIG. 32, 20 μM and 3 μM substrate, respectively, read-out: Apparent Ki, putrescine uptake): 74.5 nM
Ki [9]: 400 nM
Effect on cell growth ([3]; with or without 1 mM aminoguanidine): acutely cytotoxic
Ki [6]: 330 ± 20 nM
pKa of secondary amino group of the spermine head [10]: 8.9-9.8

NCCCN(CCCN)Cc1ccc(CN(CCCN)CCCN)cc1 [TADAX, N,N,N′,N′-tetrakis(3-aminopropyl)-p-xylylenediamine]
IC50 [11]: > 500000 nM
Ki [12]: 1500 nM
Accumulation of the compound in cells [13]: no detectable accumulation
